Results as given in PubChem BioAssay (NCI).
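A five-concentration, 48-hour dose response in 96-well plates underlies each endpoint, interpolated linearly between surrounding concentrations. GI50 = concentration required for 50% inhibition of growth. At the TGI there is no net growth.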

Legend:
Assay in all cases: DTP human tumour cell line panel, 48 h
[1] = tested on: A549 NSCLC
[2] = tested on: KM12 colon
[3] = tested on: NCI-H460 lung
[4] = tested on: 786-0 renal
[5] = tested on: RPMI-8226 leukemia
[6] = tested on: SK-MEL-5 melanoma
[7] = tested on: OVCAR-3 ovarian
[8] = tested on: OVCAR-4 ovarian
[9] = tested on: MDA-MB-435
[10] = tested on: HOP-92 NSCLC
[11] = tested on: PC-3 prostate
[12] = tested on: UO-31 renal
[13] = tested on: LOX IMVI melanoma
[14] = tested on: U251 CNS
[15] = tested on: HCT-116 colon
[16] = tested on: NCI-H522 lung
[17] = tested on: SW-620 colon
[18] = tested on: SN12C renal
[19] = tested on: EKVX NSCLC
[20] = tested on: CCRF-CEM leukemia
[21] = tested on: RXF 393 renal
[22] = tested on: DU-145 prostate
[23] = tested on: HCT-15 colon
[24] = tested on: COLO 205 colon
[25] = tested on: HL-60(TB) leukemia
[26] = tested on: HT29 colon
[27] = tested on: MALME-3M melanoma
[28] = tested on: SK-MEL-2 melanoma
[29] = tested on: ACHN renal
[30] = tested on: SNB-19 CNS
[31] = tested on: MCF7 breast
[32] = tested on: HOP-62 NSCLC
[33] = tested on: MDA-MB-231 breast
[34] = tested on: SF-268 CNS
[35] = tested on: NCI/ADR-RES ovarian
[36] = tested on: SF-295 CNS
[37] = tested on: A498 renal
[38] = tested on: IGROV1 ovarian
[39] = tested on: K-562 leukemia
[40] = tested on: UACC-62 melanoma
[41] = tested on: HCC-2998 colon
[42] = tested on: BT-549 breast
[43] = tested on: HS 578T breast
[44] = tested on: SR leukemia
[45] = tested on: NCI-H23 lung
[46] = tested on: TK-10 renal
[47] = tested on: MOLT-4 leukemia
[48] = tested on: SK-MEL-28 melanoma
[49] = tested on: UACC-257 melanoma
[50] = tested on: CAKI-1 renal
[51] = tested on: SNB-75 CNS
[52] = tested on: M14 melanoma
[53] = tested on: SF-539 CNS
[54] = tested on: SK-OV-3 ovarian
[55] = tested on: T-47D breast
[56] = tested on: NCI-H226 lung
[57] = tested on: OVCAR-5 ovarian
[58] = tested on: OVCAR-8 ovarian
[59] = tested on: MDA-N

O=C(CSC(c1ccccc1)c1ccccc1)N/N=C/c1ccccc1Cl
GI50 [1]: 13.6 µM | TGI [1]: > 57.3 µM | GI50 [2]: 27.1 µM | TGI [2]: 88.8 µM | GI50 [3]: 34 µM | TGI [3]: > 63.2 µM | GI50 [4]: 19.8 µM | TGI [4]: 65.5 µM | GI50 [5]: 8.73 µM | TGI [5]: > 40.6 µM | GI50 [6]: 21 µM | TGI [6]: 47.2 µM | GI50 [7]: 15.6 µM | TGI [7]: 57.3 µM | GI50 [8]: 11.3 µM | TGI [8]: 77.2 µM | GI50 [9]: 49.6 µM | TGI [9]: > 100 µM | GI50 [10]: 7.7 µM | TGI [10]: 37.2 µM | GI50 [11]: 14.1 µM | TGI [11]: 70.1 µM | GI50 [12]: 30.9 µM | TGI [12]: > 100 µM | GI50 [13]: 31.1 µM | TGI [13]: > 100 µM | GI50 [14]: 25.8 µM | TGI [14]: > 58.4 µM | GI50 [15]: 14 µM | TGI [15]: > 54.6 µM | GI50 [16]: 30.2 µM | TGI [16]: > 100 µM | GI50 [17]: 34.7 µM | TGI [17]: > 100 µM | GI50 [18]: 2660 nM | TGI [18]: 11.8 µM | GI50 [19]: 2750 nM | TGI [19]: > 34.1 µM | GI50 [20]: 17.4 µM | TGI [20]: 43.2 µM | GI50 [21]: 10.2 µM | TGI [21]: 55.9 µM | GI50 [22]: 50.6 µM | TGI [22]: > 100 µM | GI50 [23]: 8.36 µM | TGI [23]: > 51 µM | GI50 [24]: > 71.8 µM | TGI [24]: > 100 µM | TGI [25]: 8.46 µM | GI50 [26]: > 63.2 µM | TGI [26]: > 100 µM | GI50 [27]: 6.28 µM | TGI [27]: 42.5 µM | GI50 [28]: > 62.5 µM | TGI [28]: > 100 µM | GI50 [29]: 2180 nM | TGI [29]: 25.2 µM | GI50 [30]: 43.9 µM | TGI [30]: > 100 µM | GI50 [31]: 11.2 µM | TGI [31]: > 52.8 µM | GI50 [32]: 22.7 µM | TGI [32]: > 76.8 µM | GI50 [33]: 1460 nM | TGI [33]: 11.5 µM | GI50 [34]: 25.5 µM | TGI [34]: 78.6 µM | GI50 [35]: 13.6 µM | TGI [35]: > 74.6 µM | GI50 [36]: 15.9 µM | TGI [36]: > 68.4 µM | GI50 [37]: 7.2 µM | TGI [37]: 59.9 µM | GI50 [38]: 8.07 µM | TGI [38]: > 55.6 µM | GI50 [39]: 10.2 µM | TGI [39]: 46.8 µM | GI50 [40]: 14.7 µM | TGI [40]: > 63.5 µM | GI50 [41]: 6.9 µM | TGI [41]: > 75 µM | GI50 [42]: 2750 nM | TGI [42]: 17 µM | GI50 [43]: 9.64 µM | TGI [43]: > 56.9 µM | GI50 [44]: 9.48 µM | TGI [44]: 26.7 µM | GI50 [45]: 12.8 µM | TGI [45]: 61.6 µM | GI50 [46]: 14.5 µM | TGI [46]: 65.3 µM | GI50 [47]: 6.33 µM | TGI [47]: 40.2 µM | GI50 [48]: 46.1 µM | TGI [48]: > 100 µM | GI50 [49]: 7.05 µM | TGI [49]: 63.8 µM | GI50 [50]: 37.7 µM | TGI [50]: > 100 µM | GI50 [51]: 7.6 µM | TGI [51]: 30 µM | GI50 [52]: 36.8 µM | TGI [52]: > 100 µM | GI50 [53]: 29 µM | TGI [53]: > 90.2 µM | GI50 [54]: > 100 µM | TGI [54]: > 100 µM | GI50 [55]: > 100 µM | TGI [55]: > 100 µM | GI50 [56]: > 33 µM | TGI [56]: > 68.2 µM | GI50 [57]: 10.7 µM | TGI [57]: > 73.2 µM | GI50 [58]: 17.9 µM | TGI [58]: > 79.4 µM

C=C1CCC2[C@](C)(CCC[C@]2(C)C(=O)O)[C@@H]1CCc1ccoc1 (some centres not stated)
TGI [1]: > 100 µM | TGI [2]: 74.9 µM | TGI [3]: > 100 µM | TGI [4]: > 100 µM | TGI [5]: > 100 µM | TGI [6]: 84.8 µM | TGI [7]: 66 µM | TGI [8]: > 100 µM | TGI [9]: > 100 µM | TGI [11]: > 100 µM | TGI [12]: > 100 µM | TGI [13]: 38 µM | TGI [59]: > 100 µM | TGI [15]: 88.4 µM | TGI [16]: > 100 µM | TGI [17]: > 100 µM | TGI [18]: > 100 µM | TGI [19]: > 100 µM | TGI [20]: > 100 µM | TGI [21]: > 100 µM | TGI [22]: > 100 µM | TGI [23]: > 100 µM | TGI [24]: 33 µM | TGI [25]: 71.2 µM | TGI [26]: 55.7 µM | TGI [27]: > 100 µM | TGI [28]: 85 µM | TGI [29]: > 100 µM | TGI [30]: > 100 µM | TGI [32]: > 100 µM | TGI [33]: > 100 µM | TGI [34]: > 100 µM | TGI [35]: 98.2 µM | TGI [36]: > 100 µM | TGI [37]: > 100 µM | TGI [38]: 84.8 µM | TGI [39]: > 100 µM | TGI [40]: > 100 µM | TGI [41]: > 100 µM | TGI [43]: 80.3 µM | TGI [44]: 70.4 µM | TGI [45]: 50.7 µM | TGI [46]: 74.7 µM | TGI [47]: > 100 µM | TGI [48]: > 100 µM | TGI [49]: 83.5 µM | TGI [50]: > 100 µM | TGI [51]: > 100 µM | TGI [52]: > 100 µM | TGI [53]: 99.4 µM | TGI [54]: > 100 µM | TGI [55]: > 100 µM | TGI [56]: 65.8 µM | TGI [57]: > 100 µM

COC(=O)CSc1nc2[nH]c(SC)c(C(N)=O)c2c(=O)n1-c1ccccc1
TGI [1]: > 10 µM | TGI [2]: > 10 µM | TGI [4]: > 10 µM | TGI [5]: > 10 µM | TGI [6]: > 10 µM | TGI [8]: > 10 µM | TGI [9]: > 10 µM | TGI [10]: > 10 µM | TGI [11]: > 10 µM | TGI [13]: > 10 µM | TGI [59]: > 10 µM | TGI [17]: > 10 µM | TGI [18]: > 10 µM | TGI [19]: > 10 µM | TGI [20]: > 10 µM | TGI [21]: > 10 µM | TGI [22]: > 10 µM | TGI [23]: > 10 µM | TGI [24]: > 10 µM | TGI [25]: > 10 µM | TGI [26]: > 10 µM | TGI [27]: > 10 µM | TGI [31]: > 10 µM | TGI [32]: > 10 µM | TGI [33]: > 10 µM | TGI [34]: > 10 µM | TGI [36]: > 10 µM | TGI [38]: > 10 µM | TGI [39]: > 10 µM | TGI [40]: > 10 µM | TGI [41]: > 10 µM | TGI [44]: > 10 µM | TGI [45]: > 10 µM | TGI [46]: > 10 µM | TGI [47]: > 10 µM | TGI [48]: > 10 µM | TGI [49]: > 10 µM | TGI [50]: > 10 µM | TGI [51]: > 10 µM | TGI [52]: > 10 µM | TGI [54]: > 10 µM | TGI [55]: > 10 µM | TGI [58]: > 10 µM
